US20230126310A1 (priority 2020, published 2023)

System: SARS-CoV-2
Settings: 10 µM

| Molecule | % Inh. (% Inhibition of SARS-CoV-2) |
| --- | --- |
| Cc1ccc(-c2csc(NC(=O)c3ccccc3)n2)c(C)c1 [INH1] | 89.8% |
| c1ccc(C(NCCNC(c2ccccc2)c2ccccc2)c2ccccc2)cc1 [AMN-082] | 71.9% |
| O=C1/C(=C/c2ccccc2)C[C@@]2(O)[C@H]3Cc4ccc(O)c5c4[C@@]2(CCN3CC2CC2)[C@H]1O5 [BNTX] | 77.3% |
| Cc1nc(C#Cc2ccnc(Cl)c2)c(C)n1-c1ccc(OC(F)(F)F)cc1 [CTEP (RO4956371)] | 59.7% |
| CN(C)CCNc1nc2cc(O)ccc2c2c1C(=O)c1ccccc1-2.Cl.Cl [TAS-103 (dihydrochloride)] | 92.6% |
| Cc1ccc(C(=O)N(CCCN)[C@@H](c2oc3cc(Cl)ccc3c(=O)c2Cc2ccccc2)C(C)C)cc1 [SB-743921] | 78.9% |
| Exatecan Mesylate | 70.1% |
| O=C(Nc1ccc(CN2CCOCC2)cc1)c1ccc(-c2cccc(Cl)c2)o1 [CID-2011756] | 97.0% |
| CCCCCCCCCCCCCCCC[N+](C)(C)C.[Br-] [CETRIMONIUM BROMIDE] | 87.7% |
| CC1(C)CC(=O)c2c(C(F)(F)F)nn(-c3ccc(C(N)=O)c(N[C@H]4CC[C@H](OC(=O)CN)CC4)c3)c2C1 [PF-04929113 (SNX-5422)] | 91.3% |
| Cc1ccc2c(=O)c3ccccc3n(CCCN)c2c1C.O=C(O)/C=C\C(=O)O [ER-27319 maleate] | 101.0% |
| Cc1cc(I)ccc1Nc1c(C(=O)NOCC2CC2)cc(F)c(F)c1F [PD-198306] | 51.6% |
| Cl.O.O=CN1CCC(C(=O)NCCN2CCC(=C3c4ccccc4C=Cc4ccccc43)CC2)CC1 [AT-1015] | 75.4% |
| Taltobulin (trifluoroacetate) | 83.8% |
| Cc1ccc(CC2(O)CCN(CCOc3ccc(O)cc3)CC2)cc1 [CO-101244] | 60.2% |
| c1ccc2sc(SN3CCOCC3)nc2c1 [N-oxydiethylenebenzothiazole-2-sulfenamide] | 64.6% |
| Cc1c(Cn2c(C)nc3c(C(=O)O)cc(N4CCOCC4)cc32)cccc1C(F)(F)F [GSK2636771] | 88.1% |
| CCCCCCCCCCCCCCCc1cccc(OCC(=O)NCCO)c1 [PDP-EA] | 65.3% |
| hemin | 62.9% |
| NC1(Cc2ccc(Cl)cc2)CCN(c2ncnc3[nH]ccc23)CC1 [CCT128930] | 86.7% |
| O=C1NC(=O)/C(=C/c2cccc(C(F)(F)F)c2)S1 [SMI-4a] | 89.9% |
| Nc1ccc2ncnc(NCCc3ccc(Oc4ccccc4)cc3)c2c1 [QNZ (EVP4593)] | 95.8% |
| Cc1cc(/C=C2\SC(=O)N(c3ccccc3)C2=O)c(C)n1-c1cccnc1 [iCRT-14] | 82.5% |
| CC(C)(C)c1cc(O)c(C(C)(C)C)cc1O [BHQ] | 50.6% |
| Lasofoxifene (Tartrate) | 54.3% |

| Molecule | % Inh. (% Inhibition of SARS-CoV-2) |
| --- | --- |
| COc1c(C)cnc(Cn2cc(C#CCC(C)(C)O)c3c(Cl)nc(N)nc32)c1C [EC-144] | 95.0% |
| CC(C)NC(=O)c1ccc(C#Cc2ccncc2)cn1 [LSN-2463359] | 74.9% |
| CC[C@H](C)[C@@H]([C@@H](CC(=O)N1CCC[C@H]1[C@H](OC)[C@@H](C)C(=O)N[C@@H](Cc1ccccc1)c1nccs1)OC)N(C)C(=O)[C@@H](NC(=O)[C@H](C(C)C)N(C)C)C(C)C [Dolastin-10] | 64.3% |
| CC(C)(Cc1c[nH]c2ccc(Cl)cc12)NCCOc1ccccc1OCC1CC1 [RS-17053] | 103.3% |
| O=C1Nc2ccccc2C2(CCN(CCc3ccc(C(F)(F)F)cc3)CC2)O1 [RS-102895] | 82.1% |
| CC(C)(C)c1ccc(-c2nc3c(N4CCN(Cc5ccc6nccnc6c5)CC4)cccc3[nH]2)cc1 [WAY-207024] | 77.1% |
| C[C@]12CC[C@H]3[C@@H](CC[C@]4(O)C[C@@H](O)CC[C@]34C=O)[C@@]1(O)CC[C@@H]2C1=CC(=O)OC1 [Strophantidin] | 67.1% |
| O=C(O)[C@]1(Cc2cccc(Nc3nccs3)n2)CC[C@@H](Oc2cccc(Cl)c2F)CC1 [MK-5108 (VX-689)] | 77.9% |
| COc1cc2cc(c1Cl)N(C)C(=O)C[C@H](OC(=O)C(C)C)[C@]1(C)O[C@@H]1[C@H](C)[C@@H]1C[C@@](O)(NC(=O)O1)[C@H](OC)/C=C/C=C(\C)C2 [Ansamitocin P-3] | 62.6% |
| OC12C3C4CC5C6C4C1C6C(C53)N2CCc1cccc(F)c1 (stereo not shown) [TC1] | 53.2% |
| COc1ccc(NC(=O)c2ccc(-c3ccc(-c4noc(C)n4)cc3C)cc2)cc1OCCN(C)C [SB-216641] | 57.6% |
| O=C(Nc1ccccc1)N1CCC(Cc2cnc3ccccc3c2)CC1 [PF-750] | 85.2% |
| O=C1NC(=O)c2cc(Nc3ccccc3)c(Nc3ccccc3)cc21 [CGP-52411] | 94.5% |
| Fc1ccc(Cl)cc1-c1nc(Nc2ccncc2)c2nccnc2n1 [SD-208] | 55.1% |
| CC(C)(NS(=O)(=O)c1ccc(Oc2ccc(F)cc2)cc1)C(=O)NO [CP-471474] | 86.9% |
| Cc1ccc(NC(=O)C(C)C)cc1C1CCN(Cc2ccc(Oc3ccc(F)c(F)c3)cc2)CC1 [SNAP-94847] | 91.4% |
| verteporfin | 139.9% |
| N[C@H]1CCN(O)C1=O [HA-966-(S)-(−)] | 52.3% |
| c1ccc2nc(C3=NCCN3)cnc2c1 [BU-239] | 60.1% |
| CN([C@@H](Cc1ccc(OS(=O)(=O)c2cccc3cnccc23)cc1)C(=O)N1CCN(c2ccccc2)CC1)S(=O)(=O)c1cccc2cnccc12 [KN-62] | 96.5% |
| COc1ccc(CCN(C)CCCOc2ccc(S(=O)(=O)c3c(C(C)C)c4ccccc4n3C)cc2)cc1OC.O=C(O)C(=O)O [SR-33805 oxalate] | 67.7% |
| NCC(=O)Nc1ccc(-n2nc(C(F)(F)F)cc2-c2ccc3c(ccc4ccccc43)c2)cc1 [AR-12] | 85.7% |
| COc1cc(N2CCC(N)CC2)ccc1Nc1ncc(Cl)c(-c2c[nH]c3ccccc23)n1 [AZD3463] | 96.5% |
| O=C1NC(=O)/C(=C/c2ccc3nccc(-c4ccncc4)c3c2)S1 [GSK1059615] | 92.4% |
| NC(=O)N/N=C/c1ccc(Oc2ccc(F)cc2)cc1 [co-102862] | 55.2% |

| Molecule | % Inh. (% Inhibition of SARS-CoV-2) |
| --- | --- |
| O=C1Nc2ccc(Cl)c3c2C1(CCCCN1CC=C(c2ccc(Cl)cc2)CC1)CCC3 (stereo not shown) [DR-4485] | 82.8% |
| COc1ccc(OC)c(CN(C(C)=O)c2cc(F)ccc2Oc2ccccc2)c1 [DAA-1106] | 91.0% |
| CC(C)C(C(=O)Nc1nccs1)c1ccc(Cl)cc1 (stereo not shown) [4-CMTB] | 87.1% |
| CNC(=O)Nc1ccc(-c2nc(N3CC4CCC(C3)O4)c3cnn(C4CCC5(CC4)OCCO5)c3n2)cc1 [WYE-125132] | 99.7% |
| CC[C@H](CO)Nc1nc(NCc2ccc(-c3ccccn3)cc2)c2ncn(C(C)C)c2n1 [CR8-(R)] | 76.6% |
| Cc1cc(C)c(NC(=O)C2CC3CCC2C3)c(C)c1 (stereo not shown) [ML-213] | 69.5% |
| TC-I-2014 | 97.8% |
| Nc1nc(OCC2CCCCC2)c2[nH]cnc2n1 [NU-2058] | 51.9% |
| CCn1c(=O)n(C2=C(CO)CN(CC3CCCCCCC3)CC2)c2ccccc21 [trap-101] | 77.9% |
| CC(C)n1nc(-c2ccc3oc(N)nc3c2)c2c(N)ncnc21 [INK 128 (MLN0128)] | 84.9% |
| O=C(CNC(=O)c1cccc(C(F)(F)F)c1)N[C@@H]1CCN(Cc2ccc(Cl)cc2)C1 [Teijin-compound-1] | 85.7% |
| Afatinib (dimaleate) | 60.2% |
| CCCCCCCCc1ccc(-c2ccc(C(=O)O)cc2)cc1 [AC-55649] | 63.1% |
| COc1cc(SC)ccc1C(=O)N1CCC(Cc2ccccc2)CC1 [JX-401] | 71.2% |
| c1ccc(CCCCN2CCC(c3ccccc3)CC2)cc1 [4-PPBP] | 63.1% |
| SNS-314 methanesulfonate | 81.4% |
| CN(C)C(=O)C(=O)c1cn(C)c2cc(Cl)c(C(=O)N3CCC(Cc4ccc(F)cc4)CC3)cc12 [SX-011] | 94.1% |
| CCCCCCc1ccc(O)cc1O.Nc1c2ccccc2nc2ccccc12 [ACRISORCIN] | 61.7% |
| OCCCNc1cc(-c2ccnc(Nc3cccc(Cl)c3)n2)ccn1 [CGP-60474] | 54.4% |
| Skepinone-L | 86.1% |
| CNc1cc2c(Nc3cccc(Br)c3)ncnc2cn1 [PD-158780] | 98.3% |
| COc1ccc(C(=O)N2CCCc3cc(C4=NNC(=O)SC4C)ccc32)cc1OC (stereo not shown) [EMD-53998] | 79.6% |
| Cc1ccc(Nc2ncc3c(n2)N(C)C(=O)N(c2cc(NC(=O)c4cccc(C(F)(F)F)c4)ccc2C)C3)cn1 [GNF-7] | 107.6% |
